Test results published in US10961256B2, “PRMT5 inhibitors” (priority 2016, dated 2021).

How the values were obtained:
[1] = molecular target: Full-length PRMT5 enzyme co-expressed with His6-MEP50 (Homo sapiens (Human), UniProt O14744); test: PRMT5 Biochemical Assay; conditions: histone H4 derived peptide substrate, Transcreener EPIGEN methyltransferase assay, 4 hours at 37 degree Celsius
Procedure: Compounds of the invention may be tested for in vitro activity in the following assay: A histone H4 derived peptide is used as substrate (amino acid sequence: […]NH2). Full-length PRMT5 enzyme (NCBI Reference sequence NP_006100.2) was co-expressed with His6-MEP50 in insect cells and purified via Nickel immobilized metal affinity and gel filtration chromatography (“the enzyme”).
The 6 μL reactions are run in Greiner brand black 384-well low volume assay plates. All reactions contained assay buffer (phosphate buffered saline, 0.01% (v/v) Tween-20, 0.01% (w/v) albumin from chicken egg white, 1 mM Dithiothreitol, 1 μM peptide substrate, 1 μM S-Adenosyl methionine, and 15 ng/reaction enzyme, with the enzyme being omitted from negative control reactions. Compounds were added in a volume of 100 nL from dilution series prepared in DMSO, positive and negative control reactions receiving the same volume DMSO without compound. The plates were sealed with adhesive seals and incubated for 4 hours at 37 degree Celsius. Reaction progress was measured using the Transcreener™ EPIGEN methyltransferase assay (BellBrook Labs, Madison, Wis.) as recommended by the manufacturer. To each reaction 2 μL detection mix were added, containing coupling enzymes, fluorescence polarisation tracer, and AMP antibody. Plates were incubated for 90 minutes before being read on a PerkinElmer EnVision™ plate reader in fluorescence polarisation mode.

[2] = tested on: symmetrical dimethylation of arginine (Di-Methyl Histone H4 Arginine 3) in TE11 cells; test: cells; conditions: Homo sapiens, TE-11, 72 h
Procedure: Compounds of the invention may be tested for potency to inhibit symmetrical dimethylation of arginine in the following assay:
The cell line TE11 was seeded at a density of 6,000 cells per well in 96 well optical quality tissue culture plates in DME medium and 10% foetal bovine serum, and allowed to adhere for 5 hours under standard culture conditions (37 degree Celsius, 5% CO2). […] After incubation for 72 hours, the cells were fixed with 3.7% formaldehyde in PBS for 30 minutes at room temperature, washed with phosphate buffer saline and blocked with Odyssey blocking buffer (LI-COR, Lincoln, Nebr.). Rabbit anti-Di-Methyl Histone H4 Arginine 3 specific antibody (Epigentek) in Odyssey blocking buffer was added and incubated for 14 hours at 4 degree Celsius.

Sequence of Full-length PRMT5 enzyme co-expressed with His6-MEP50 (O14744 whole entry): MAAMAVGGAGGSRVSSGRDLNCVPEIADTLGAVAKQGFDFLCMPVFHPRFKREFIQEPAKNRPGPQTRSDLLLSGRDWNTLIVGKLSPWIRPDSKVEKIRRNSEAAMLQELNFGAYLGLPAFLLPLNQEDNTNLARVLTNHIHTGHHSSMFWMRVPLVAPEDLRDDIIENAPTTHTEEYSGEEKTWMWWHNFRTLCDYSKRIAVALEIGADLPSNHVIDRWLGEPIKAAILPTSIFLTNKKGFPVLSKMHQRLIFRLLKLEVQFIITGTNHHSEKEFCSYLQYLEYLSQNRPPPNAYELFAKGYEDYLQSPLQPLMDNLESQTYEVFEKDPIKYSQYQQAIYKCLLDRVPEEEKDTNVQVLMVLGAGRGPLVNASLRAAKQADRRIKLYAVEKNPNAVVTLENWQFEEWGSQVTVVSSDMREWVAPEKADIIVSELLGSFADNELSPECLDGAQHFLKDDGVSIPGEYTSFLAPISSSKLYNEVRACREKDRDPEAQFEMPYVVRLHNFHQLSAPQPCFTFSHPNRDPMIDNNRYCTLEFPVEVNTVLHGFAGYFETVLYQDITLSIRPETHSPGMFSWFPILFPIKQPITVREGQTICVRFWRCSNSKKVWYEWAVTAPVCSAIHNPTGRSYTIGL
Sequence of Full-length PRMT5 enzyme co-expressed with His6-MEP50 (Q9BQA1 whole entry partner): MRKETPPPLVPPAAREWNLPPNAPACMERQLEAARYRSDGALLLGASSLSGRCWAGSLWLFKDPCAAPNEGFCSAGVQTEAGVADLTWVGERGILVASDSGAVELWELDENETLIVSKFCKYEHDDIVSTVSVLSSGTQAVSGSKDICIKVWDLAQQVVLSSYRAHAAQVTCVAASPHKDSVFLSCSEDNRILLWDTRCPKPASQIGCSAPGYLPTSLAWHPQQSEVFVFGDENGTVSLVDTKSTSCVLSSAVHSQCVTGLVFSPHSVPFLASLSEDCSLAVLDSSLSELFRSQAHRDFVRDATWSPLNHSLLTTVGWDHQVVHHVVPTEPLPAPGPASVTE

SMILES	IC50 [1] [nM]	IC50 [2] [nM]
Cc1nn(CC(O)CNC2Cc3ccccc3C2)c(=O)c2ccccc12 (centres unmarked) [Compound 1, 2-(3-((2,3-Dihydro-1H-inden-2-yl)amino)-2-hydroxypropyl)-4-methylphthalazin-1(2H)-one]	4530	
Cc1nn(C[C@@H](O)CNC2Cc3ccccc3C2)c(=O)c2ccc(C(=O)N3C4CCC3COC4)cc12 [Compound 2, 6-(3-Oxa-8-azabicyclo[3.2.1]octane-8-carbonyl)-2-((S)-3-((2,3-dihydro-1H-Inden-2-yl)amino)-2-hydroxypropyl)-4-methylphthalazin-1(2H)-one]	170	18
CCc1nn(C[C@@H](O)CNC2Cc3ccccc3C2)c(=O)c2ccc(C(=O)N3C4CCC3COC4)cc12 [Compound 3, 6-(3-Oxa-8-azabicyclo[3.2.1]octane-8-carbonyl)-2-((S)-3-((2,3-dihydro-1H-Inden-2-yl)amino)-2-hydroxypropyl)-4-ethylphthalazin-1(2H)-one]	30	1.9
